Experiments:
[1] = Corrosion weight loss test on steel coupons in HCl; design: Pitting Index: scale not given here
Source text: (§1) Such “acceptable” levels of corrosion are application-specific.

[2] = Corrosion weight loss test on steel coupons in HCl; design: Pitting Index: scale not given here; remark: listed apart in the source
Source text: as §1

[3] = Corrosion weight loss test on steel coupons in HCl
Procedure: Experiments were carried out with coupons of the following steels: • 22Cr125 also designated 2205, a duplex alloy steel which is an iron-chromium-nickel-molybdenum alloy, used (among other things) to fabricate casing. • HS80™ (TradeMark of TENARIS), a low carbon steel used to fabricate coiled tubing. • N80, a medium carbon steel used to fabricate borehole casing. • 13Cr80, an alloy steel containing 13 wt % chromium without nickel, also used to fabricate borehole casing.
(1) Metal Type: Duplex Stainless Steel 22Cr125 Casing (2205 b6); 4 mol/L HCl, T=80° C., 3 Hours Exposure

[4] = Corrosion weight loss test on steel coupons in HCl; design: Pitting Index: scale not given here; remark: listed apart in the source
Source text: as §1

[5] = Solubility in hydrochloric acid solutions; assay type: physicochemical; conditions: compared with NMTHQ
Source text: As a result, a surfactant is required to solubilise NTHQ for corrosion testing purposes. The surfactant used in this example is P2393, a polyoxyethylene tridecyl ether, C13H27(OCH2CH2)nOH, where n=10.
As a result, a surfactant is required to solubilise NTHQ for corrosion testing purposes. As for example 5 (NTHQ), the surfactant used to solubilise NCOTHQ is P2393, a polyoxyethylene tridecyl ether, C13H27(OCH2CH2)nOH, where n=10.

[6] = 0.1542 wt % (5.13 mmol/L), KI 0, 2205 (b9), 5 mL 2-butoxyethanol in 200 mL 4 mol/L HCl

c1ccc2c(CN3CCC[C@H]4CCCC[C@@H]43)cccc2c1 [4aR-8aS-NMDHQ]
Pitting Index ([1]; 0.3087 wt % (11.05 mmol/L), KI 0): 2
Pitting Index ([2]; 0.3098 wt % (11.09 mmol/L), KI 0): 1
Pitting Index ([3]; 0.3095 wt % (11.08 mmol/L), KI 0, 2205 (b8)): 1
Pitting Index ([4]; 0.3076 wt % (11.01 mmol/L), KI 0, 13Cr): 2

c1ccc2c(CNCCc3c[nH]c4ccccc34)cccc2c1 [HINNME, 2-(1H-indol-3-yl)-N-(naphthalene-1-ylmethyl)ethan-1-amine]
Pitting Index ([3]; 0.1500 wt % (4.99 mmol/L) + KI 20 mmol/L, 2205 (b9), 5 mL 2-butoxyethanol in 200 mL 4 mol/L HCl): 0
Pitting Index [3, 6]: 2

[I-].[K+] [KI, potassium iodide, reference compound]
Pitting Index ([1]; KI 10 mmol/L alone, no NMTHQ): 2
Pitting Index ([2]; KI 10 mmol/L alone, no NMTHQ): 5
Pitting Index ([3]; KI 10 mmol/L alone, no organic inhibitor, 2205 (b5)): 5
Pitting Index ([3]; KI 20 mmol/L alone, no organic inhibitor, 2205 (b5), 4 mol/L HCl, 80° C., 3 hours): 5
Pitting Index ([4]; KI 10 mmol/L alone, no NMTHQ): 5

O=C(c1cccc2ccccc12)N1CCCc2ccccc21 [NCOTHQ, (3,4-dihydroquinolin-1(2H)-yl)(naphthalene-1-yl)methanone]
solubility in hydrochloric acid solutions (in words) [5]: significantly less soluble than NMTHQ

c1ccc2c(CN3CCCC4CCCCC43)cccc2c1 (stereo not shown) [NMDHQ, 1-(naphthalen-1-ylmethyl)decahydroquinoline]
Pitting Index ([1]; 0.3061 wt % (10.95 mmol/L), KI 0): 2
Pitting Index ([2]; 0.3068 wt % (10.98 mmol/L), KI 0): 0
Pitting Index ([3]; 0.1414 wt % (5.0 mmol/L) + KI 10 mmol/L, 2205 (b8)): 0
Pitting Index ([3]; 0.1414 wt % (5.0 mmol/L) + KI 20 mmol/L, 2205 (b8)): 0
Pitting Index ([3]; 0.3088 wt % (11.05 mmol/L), KI 0, 2205 (b8)): 1
Pitting Index ([4]; 0.3094 wt % (11.07 mmol/L), KI 0, 13Cr): 2

NCCc1cn(Cc2cccc3ccccc23)c2ccccc12 [NMHIE, 2-(1-(Naphthalene-1ylmethyl)-1H-indol-3-yl)ethan-1-amine]
Pitting Index ([3]; 0.1500 wt % (4.99 mmol/L) + KI 20 mmol/L, 2205 (b9), 0.5 wt % P2393 in 4 mol/L HCl): 0
Pitting Index ([3]; 0.1542 wt % (5.13 mmol/L), KI 0, 2205 (b9), 0.5 wt % P2393 in 4 mol/L HCl): 5
Pitting Index [3, 6]: 3

c1ccc2c(c1)CCN2Cc1cccc2ccccc12 [NMI, 1-(naphthalen-1-ylmethyl)indoline]
Pitting Index ([3]; 0.1304 wt % (5.03 mmol/L), KI 0, 2205 (b9)): 3
Pitting Index ([3]; 0.1308 wt % (5.04 mmol/L) + KI 20 mmol/L, 2205 (b9)): 0

c1ccc2c(CN3CCOCC3)cccc2c1 [NMM, 4-(naphthalene-1-ylmethyl)morpholine]
Pitting Index ([3]; 0.1397 wt % (5.04 mmol/L) + KI 20.12 mmol/L, 2205 (b9)): 2
Pitting Index ([3]; 0.1402 wt % (5.05 mmol/L), KI 0, 2205 (b9)): 5

c1ccc2c(c1)CCN(Cc1ccc3ccccc3c1)C2 [NMTHisoQ]
Pitting Index ([3]; 0.1366 wt % (5.00 mmol/L) + KI 20 mmol/L, 2205 (b5), 4 mol/L HCl, 80° C., 3 hours): 0
Pitting Index ([3]; 0.1367 wt % (5.00 mmol/L), KI 0, 2205 (b5), 4 mol/L HCl, 80° C., 3 hours): 1

c1ccc2c(c1)CCCN2c1cccc2ccccc12 [NTHQ, 1-(naphthalen-1-yl)-1,2,3,4-tetrahydroquinoline]
Pitting Index ([1]; 11.00 mmol/L + additive P2393, 0.5 wt %): 1
Pitting Index ([3]; 11.00 mmol/L + additive P2393, 0.5 wt %, 2205 (b5)): 3
solubility in hydrochloric acid solutions (in words) [5]: significantly less soluble than NMTHQ

c1ccc2ncccc2c1 [Quinoline, reference compound]
Pitting Index ([3]; 0.1421 wt % (11.00 mmol/L), 2205 b6, 4 mol/L HCl, 80° C., 3 hours): 6
